# Data published in ChEMBL document CHEMBL4043096, “Synthesis of 6-hydroxyaurone analogues and evaluation of their α-glucosidase inhibitory and glucose consumption-promoting activity: Development of highly active 5,6-disubstituted derivatives” (Bioorg Med Chem Lett, 2017).
# pIC50: −log10 of the molar value. Active and inactive are the calls of the source. The calls are words filed in the database; no cut-off is given here.
# What was measured:
# HepG2 [1] = assay: Induction of glucose consumption in human HepG2 cells at 1 mM incubated for 24 hrs; format: functional, cell-based
# [2] = Inhibition of baker's yeast alpha-glucosidase incubated for 30 mins using p-nitrophenyl-alpha-D-glucopyranoside substrate by spectrophotometry; parameters: species or system Saccharomyces cerevisiae
# HepG2 [3] = assay: Induction of glucose consumption in human HepG2 cells at 1 uM incubated for 24 hrs; format: functional, cell-based
# Saccharomyces cerevisiae [4] = assay: Irreversible inhibition of baker's yeast alpha-glucosidase at […] dialyzed for 24 hrs followed by compound re-treatment for 30 mins using p-nitrophenyl-alpha-D-glucopyranoside substrate
# Saccharomyces cerevisiae [5] = assay: Mixed competitive inhibition of baker's yeast alpha-glucosidase incubated for 30 mins using p-nitrophenyl-alpha-D-glucopyranoside substrate by spectrophotometry based Lineweaver-Burk plot analysis
# Saccharomyces cerevisiae [6] = assay: Irreversible inhibition of baker's yeast alpha-glucosidase incubated for 30 mins using p-nitrophenyl-alpha-D-glucopyranoside substrate by spectrophotometry based Lineweaver-Burk plot analysis
pIC50 [2],SMILES,other results
4.12,O=C1/C(=C/c2ccc(O)cc2)Oc2cc(O)ccc21,–
4.70,COc1ccc(COc2ccc3c(c2)O/C(=C\c2ccccc2)C3=O)cc1,–
4.67,COc1cc2c(cc1-c1ccc(C(F)(F)F)cc1)C(=O)CO2,–
< 4.00,COc1ccc(COc2ccc3c(c2)OCC3=O)cc1,–
4.70,COc1cc2c(cc1-c1ccccc1)C(=O)CO2,–
4.96,CCOC(=O)/C=C1\Oc2cc(O)c(-c3ccc(F)cc3)cc2C1=O,–
< 4.00,O=C1/C(=C/c2ccccc2)Oc2cc(O)ccc21,–
4.30,C[C@H]1O[C@H](O[C@H]2[C@H](O)[C@@H](O)[C@@H](O[C@H]3[C@H](O)[C@@H](O)C(O)O[C@@H]3CO)O[C@@H]2CO)[C@H](O)[C@@H](O)[C@@H]1N[C@H]1C=C(CO)[C@@H](O)[C@H](O)[C@H]1O (stereo partly specified) [ACARBOSE],–
4.48,CCOC(=O)/C=C1\Oc2cc(OCc3ccc(OC)cc3)ccc2C1=O,–
4.10,O=C1/C(=C/c2ccc(O)cc2O)Oc2cc(O)ccc21,–
< 4.00,COc1ccc(/C=C2\Oc3cc(O)ccc3C2=O)cc1OC,–
4.60,COc1ccc(COc2cc3c(cc2-c2ccc(F)cc2)C(=O)CO3)cc1,–

# More lines, now with the values behind:
SMILES,pIC50 [2],other results
CN(C)C(=N)NC(=N)N,–,Activity (HepG2 [1]): Active
O=C1/C(=C/c2ccc(O)c(O)c2)Oc2cc(O)ccc21 [SULFURETIN],4.17,–
O=C1/C(=C/c2ccccc2O)Oc2cc(O)ccc21,4.03,–
COc1cc2c(cc1-c1ccccc1)C(=O)/C(=C/c1ccccc1)O2,< 4.00,–
COc1cc2c(cc1-c1ccc(F)cc1)C(=O)CO2,5.01,Activity (HepG2 [3]): Active; inhibition (Saccharomyces cerevisiae [4]): Active; inhibition (Saccharomyces cerevisiae [5]): Active; inhibition (Saccharomyces cerevisiae [6]): Active
CCOC(=O)/C=C1\Oc2cc(O)c(-c3ccc(C(F)(F)F)cc3)cc2C1=O,4.84,–
O=C1/C(=C/c2cccc(O)c2)Oc2cc(O)ccc21,< 4.00,–
O=C1/C(=C/c2ccccc2)Oc2cc(O)c(-c3ccc(C(F)(F)F)cc3)cc21,4.51,Activity (HepG2 [3]): Active
COc1cc2c(cc1-c1ccc(F)cc1)C(=O)/C(=C/c1ccccc1)O2,< 4.00,–
COc1ccc(COc2cc3c(cc2-c2ccc(C(F)(F)F)cc2)C(=O)CO3)cc1,4.96,–
O=C1c2ccc(O)cc2OC1Cc1ccc(O)c(O)c1 (stereo unspecified),4.20,–
CCOC(=O)/C=C1\Oc2cc(OC)c(-c3ccc(F)cc3)cc2C1=O,4.58,–
COc1ccc(COc2cc3c(cc2-c2ccccc2)C(=O)CO3)cc1,4.98,Activity (HepG2 [3]): inactive
